From EP4230620A1, “SUBSTITUTED N-AMINO-N-BENZOIC ACID URACILS, THEIR SALTS AND USE OF SAID COMPOUNDS AS HERBICIDAL AGENTS” (Bayer Aktiengesellschaft, priority 2022, dated 2023)

Columns and labels:
Type in all cases: in vivo
[1] = system: Abutilon theophrasti; assay: Post-emergence herbicidal action in greenhouse against ABUTH; conditions: post-emergence spray, 600 l/ha water, visual rating after ca. 3 weeks vs untreated controls, 100% = plants dead, 0% = like control plants
Text: (§1) Biologische Beispiele: • Die folgenden Abkürzungen werden für die in den folgenden Tabellen aufgeführten Kultur- und Schadpflanzen verwendet: ABUTH: Abutilon theophrasti ALOMY: Alopecurus myosuroides AMARE: Amaranthus retroflexus BRSNS: Brassica napus DIGSA: Digitaria sanguinalis ECHCG: Echinochloa crus-galli GLXMA: Glycine max KCHSC: Kochia scoparia LOLRI: Lolium rigidum MATIN: Matricaria inodora ORYZA: Oryza sativa PHPBU: Pharbitis purpurea POLCO: Polygonum convolvulus SETVI: Setaria viridis VERPE: Veronica persica VIOTR: Viola tricolor TRZAS: Triticum aestivum ZEAMX: Zea mays • A. Herbizide Wirkung im Nachauflauf
(§2) Samen von mono- bzw. dikotylen Unkrautpflanzen wurden in Kunststoff- oder Holzfasertöpfen in sandigem Lehmboden ausgelegt, mit Erde abgedeckt und im Gewächshaus unter kontrollierten Wachstumsbedingungen angezogen. 2 bis 3 Wochen nach der Aussaat wurden die Versuchspflanzen im Einblattstadium behandelt. Die in Form von benetzbaren Pulvern (WP) oder als Emulsionskonzentrate (EC) formulierten erfindungsgemäßen Verbindungen wurden dann als wässrige Suspension bzw. Emulsion unter Zusatz von 0,5% Additiv mit einer Wasseraufwandmenge von umgerechnet 600 l/ha auf die grünen Pflanzenteile gesprüht. Nach ca. 3 Wochen Standzeit der Versuchspflanzen im Gewächshaus, unter optimalen Wachstumsbedingungen, wurde die Wirkung der Präparate visuell im Vergleich zu unbehandelten Kontrollen bonitiert. Beispielsweise bedeutet 100% Wirkung = Pflanzen sind abgestorben, 0% Wirkung = wie Kontrollpflanzen.
(§3) In den nachstehenden Tabellen A1 bis A11 sind die Wirkungen ausgewählter Verbindungen der allgemeinen Formel (I) gemäß der Tabelle 1 auf verschiedene Schadpflanzen und einer Aufwandmenge entsprechend 20 g/ha und niedriger, die gemäß zuvor genannter Versuchsvorschrift erhalten wurden, dargestellt. Tabelle A1a: Nachauflaufwirkung bei 1,25 g/ha gegen ABUTH in %

[2] = system: Alopecurus myosuroides; assay: Post-emergence herbicidal action in greenhouse against ALOMY; conditions: 20 g/ha; post-emergence spray, 600 l/ha water; visual rating after ca. 3 weeks vs untreated controls; 100% = plants dead, 0% = like control plants
Text: as §1, §2, §3

[3] = system: Amaranthus retroflexus; assay: Post-emergence herbicidal action in greenhouse against AMARE; conditions: post-emergence spray, 600 l/ha water, visual rating after ca. 3 weeks vs untreated controls, 100% = plants dead, 0% = like control plants
Text: as §1, §2, §3

[4] = system: Digitaria sanguinalis; assay: Post-emergence herbicidal action in greenhouse against DIGSA; conditions: visual rating after ca. 3 weeks
Text: as §1, §2, §3

[5] = system: Matricaria inodora; assay: Post-emergence herbicidal action in greenhouse against MATIN; conditions: visual rating after ca. 3 weeks
Text: as §1, §2, §3

[6] = system: Pharbitis purpurea; assay: Post-emergence herbicidal action in greenhouse against PHBPU; conditions: visual rating after ca. 3 weeks
Text: as §1, §2, §3

[7] = system: Polygonum convolvulus; assay: Post-emergence herbicidal action in greenhouse against POLCO; conditions: visual rating after ca. 3 weeks
Text: as §1, §2, §3

[8] = system: Setaria viridis; assay: Post-emergence herbicidal action in greenhouse against SETVI; conditions: visual rating after ca. 3 weeks
Text: as §1, §2, §3

[9] = system: Veronica persica; assay: Post-emergence herbicidal action in greenhouse against VERPE; conditions: visual rating after ca. 3 weeks
Text: as §1, §2, §3

[10] = system: Viola tricolor; assay: Post-emergence herbicidal action in greenhouse against VIOTR; conditions: visual rating after ca. 3 weeks
Text: as §1, §2, §3

[11] = system: Triticum aestivum; assay: Post-emergence action on crop plants in greenhouse, TRZAS; conditions: crop plant, visual rating after ca. 3 weeks, 100% = plants dead, 0% = like control plants
Text: as §1
as §2, with “Kulturpflanzen” for “Unkrautpflanzen”
as §3, with “B1” for “A1”, “B4” for “A11”, “Kulturpflanzen” for “Schadpflanzen”, “B1a:” for “A1a:”, “ZEAMX” for “ABUTH”

[12] = system: Oryza sativa; assay: Post-emergence action on crop plants in greenhouse, ORYZA; conditions: crop plant, visual rating after ca. 3 weeks, 100% = plants dead, 0% = like control plants
Text: as §1
as §2, with “Kulturpflanzen” for “Unkrautpflanzen”
as §3, with “B1” for “A1”, “B4” for “A11”, “Kulturpflanzen” for “Schadpflanzen”, “B1a:” for “A1a:”, “ZEAMX” for “ABUTH”

## C=CCOC(=O)C(C)(C)OC(=O)c1cc(-n2c(=O)cc(C(F)(F)F)n(N)c2=O)c(F)cc1Cl [I.1-471, 1-(Allyloxy)-2-methyl-1-oxopropan-2-yl-5-[3-amino-2,6-dioxo-4-(trifluormethyl)-3,6-dihydropyrimidin-1(2H)-yl]-2-chlor-4-fluorbenzoat]
[1]; 1,25 g/ha
  Nachauflaufwirkung gegen ABUTH: 100%
[1]; 5 g/ha
  Nachauflaufwirkung gegen ABUTH: 100%
[1]; 20 g/ha
  Nachauflaufwirkung gegen ABUTH: 100%
[2]
  Nachauflaufwirkung gegen ALOMY: 100%
[3]; 1,25 g/ha
  Nachauflaufwirkung gegen AMARE: 100%
[3]; 5 g/ha
  Nachauflaufwirkung gegen AMARE: 100%
[3]; 20 g/ha
  Nachauflaufwirkung gegen AMARE: 100%
[4]; 5 g/ha
  Nachauflaufwirkung gegen DIGSA: 100%
[4]; 20 g/ha
  Nachauflaufwirkung gegen DIGSA: 100%
[5]; 5 g/ha
  Nachauflaufwirkung gegen MATIN: 100%
[5]; 20 g/ha
  Nachauflaufwirkung gegen MATIN: 100%
[6]; 1,25 g/ha
  Nachauflaufwirkung gegen PHBPU: 100%
[6]; 5 g/ha
  Nachauflaufwirkung gegen PHBPU: 100%
[6]; 20 g/ha
  Nachauflaufwirkung gegen PHBPU: 100%
[7]; 5 g/ha
  Nachauflaufwirkung gegen POLCO: 100%
[7]; 20 g/ha
  Nachauflaufwirkung gegen POLCO: 100%
[8]; 1,25 g/ha
  Nachauflaufwirkung gegen SETVI: 100%
[8]; 5 g/ha
  Nachauflaufwirkung gegen SETVI: 100%
[8]; 20 g/ha
  Nachauflaufwirkung gegen SETVI: 100%
[9]; 1,25 g/ha
  Nachauflaufwirkung gegen VERPE: 100%
[9]; 5 g/ha
  Nachauflaufwirkung gegen VERPE: 100%
[9]; 20 g/ha
  Nachauflaufwirkung gegen VERPE: 100%
[10]; 1,25 g/ha
  Nachauflaufwirkung gegen VIOTR: 90%
[10]; 5 g/ha
  Nachauflaufwirkung gegen VIOTR: 100%
[10]; 20 g/ha
  Nachauflaufwirkung gegen VIOTR: 100%
[11]; 1,25 g/ha
  Nachauflaufwirkung gegen TRZAS: 0%
[11]; 5 g/ha
  Nachauflaufwirkung gegen TRZAS: 20%
[12]; 1,25 g/ha
  Nachauflaufwirkung gegen ORYZA: 0%

## COCCOC(=O)C(C)(C)OC(=O)c1cc(-n2c(=O)cc(C(F)(F)F)n(N)c2=O)ccc1Cl [I.2-1]
[1]; 1,25 g/ha
  Nachauflaufwirkung gegen ABUTH: 90%
[1]; 5 g/ha
  Nachauflaufwirkung gegen ABUTH: 100%
[1]; 20 g/ha
  Nachauflaufwirkung gegen ABUTH: 100%
[2]
  Nachauflaufwirkung gegen ALOMY: 80%
[3]; 1,25 g/ha
  Nachauflaufwirkung gegen AMARE: 100%
[3]; 5 g/ha
  Nachauflaufwirkung gegen AMARE: 100%
[3]; 20 g/ha
  Nachauflaufwirkung gegen AMARE: 100%
[4]; 20 g/ha
  Nachauflaufwirkung gegen DIGSA: 100%
[5]; 5 g/ha
  Nachauflaufwirkung gegen MATIN: 90%
[5]; 20 g/ha
  Nachauflaufwirkung gegen MATIN: 100%
[6]; 1,25 g/ha
  Nachauflaufwirkung gegen PHBPU: 80%
[6]; 5 g/ha
  Nachauflaufwirkung gegen PHBPU: 90%
[6]; 20 g/ha
  Nachauflaufwirkung gegen PHBPU: 100%
[7]; 20 g/ha
  Nachauflaufwirkung gegen POLCO: 100%
[8]; 1,25 g/ha
  Nachauflaufwirkung gegen SETVI: 100%
[8]; 5 g/ha
  Nachauflaufwirkung gegen SETVI: 100%
[8]; 20 g/ha
  Nachauflaufwirkung gegen SETVI: 100%
[9]; 1,25 g/ha
  Nachauflaufwirkung gegen VERPE: 80%
[9]; 5 g/ha
  Nachauflaufwirkung gegen VERPE: 100%
[9]; 20 g/ha
  Nachauflaufwirkung gegen VERPE: 100%
[10]; 1,25 g/ha
  Nachauflaufwirkung gegen VIOTR: 90%
[10]; 5 g/ha
  Nachauflaufwirkung gegen VIOTR: 100%
[10]; 20 g/ha
  Nachauflaufwirkung gegen VIOTR: 100%
[11]; 1,25 g/ha
  Nachauflaufwirkung gegen TRZAS: 0%
[11]; 5 g/ha
  Nachauflaufwirkung gegen TRZAS: 0%
[11]; 20 g/ha
  Nachauflaufwirkung gegen TRZAS: 10%
[12]; 1,25 g/ha
  Nachauflaufwirkung gegen ORYZA: 0%
[12]; 5 g/ha
  Nachauflaufwirkung gegen ORYZA: 0%

## CC(C)=NOC(=O)C(C)(C)OC(=O)c1cc(-n2c(=O)cc(C(F)(F)F)n(N)c2=O)ccc1Cl [I.2-491]
[1]; 5 g/ha
  Nachauflaufwirkung gegen ABUTH: 100%
[1]; 20 g/ha
  Nachauflaufwirkung gegen ABUTH: 100%
[3]; 1,25 g/ha
  Nachauflaufwirkung gegen AMARE: 80%
[3]; 5 g/ha
  Nachauflaufwirkung gegen AMARE: 100%
[3]; 20 g/ha
  Nachauflaufwirkung gegen AMARE: 100%
[4]; 5 g/ha
  Nachauflaufwirkung gegen DIGSA: 100%
[4]; 20 g/ha
  Nachauflaufwirkung gegen DIGSA: 100%
[5]; 5 g/ha
  Nachauflaufwirkung gegen MATIN: 80%
[5]; 20 g/ha
  Nachauflaufwirkung gegen MATIN: 100%
[6]; 1,25 g/ha
  Nachauflaufwirkung gegen PHBPU: 90%
[6]; 5 g/ha
  Nachauflaufwirkung gegen PHBPU: 100%
[6]; 20 g/ha
  Nachauflaufwirkung gegen PHBPU: 100%
[7]; 20 g/ha
  Nachauflaufwirkung gegen POLCO: 100%
[8]; 1,25 g/ha
  Nachauflaufwirkung gegen SETVI: 90%
[8]; 5 g/ha
  Nachauflaufwirkung gegen SETVI: 100%
[8]; 20 g/ha
  Nachauflaufwirkung gegen SETVI: 100%
[9]; 5 g/ha
  Nachauflaufwirkung gegen VERPE: 100%
[9]; 20 g/ha
  Nachauflaufwirkung gegen VERPE: 100%
[10]; 1,25 g/ha
  Nachauflaufwirkung gegen VIOTR: 80%
[10]; 5 g/ha
  Nachauflaufwirkung gegen VIOTR: 100%
[10]; 20 g/ha
  Nachauflaufwirkung gegen VIOTR: 100%
[11]; 1,25 g/ha
  Nachauflaufwirkung gegen TRZAS: 0%
[11]; 5 g/ha
  Nachauflaufwirkung gegen TRZAS: 0%
[11]; 20 g/ha
  Nachauflaufwirkung gegen TRZAS: 20%
[12]; 1,25 g/ha
  Nachauflaufwirkung gegen ORYZA: 0%
[12]; 5 g/ha
  Nachauflaufwirkung gegen ORYZA: 0%
